Among the data in article PMC5589576, “Targeting the apoptotic Mcl-1-PUMA interface with a dual-acting compound” (Oncotarget, 2017) are IC50 values, retold here.

For assay [1], the system named is SMMC-7721 cells. As to the kind of experiment: MTT test on suppressing cancer cells, SMMC-7721. It counts as cell-based. The note with it: Homo sapiens, 24h. The protocol:
(Nunc). To check the interference effects of candidate membranes. […]
Microplate Spectrophotometer with excitation wavelength (Boster). being 432 nm. The IC50 calculations were performed by Graphpad Prism 5 (Graphpad software, Inc.). Key residues discovery
Tests of candidate compounds on suppressing In the present study, key residues involved in the […]
by using site-directed mutagenesis and FPA competition
Cell lines including A2780, MCF-7 and SMMC- assays in combination. According to the results of pairwise 7721 were cultured to the logarithmic growth phase per-residue free energy decomposition, the residues in 3 ml complete media (RPMI1640 plus 10%FBS), contributing a lot to the binding of PUMA/Comp8 to 4 Mcl-1 were subjected to site-directed mutagenesis. By respectively. After adjusting their concentrations to 5×10 reference to the primers listed in Supplementary Table5, cells/ml with complete media, these cell lines were plated overlapping extension PCR was conducted to realize into 96-well, transparent, flat-bottom plates (150 μl/well), site-directed mutagenesis. After verified by gene each point was prepared in three replicates. The density sequencing, the individually mutated PCR products were of cultured cell lines was evaluated by MTT tests. When cloned into the expressing vector pET-43.1a (+). […]
A general note: Formazan colour is commonly taken as a measure of viable cells.

Assay [2] relates to DLD-1 cells infected with Ad-PUMA. Nature of the assay: PUMA-dependent apoptosis of DLD-1 cells infected with Ad-PUMA (Caspase-Glo 3/7). It counts as cell-based. The note with it: Homo sapiens; DLD-1, Ad-PUMA, 48h; read-out: IC50 (inhibition of PUMA-dependent apoptosis). The protocol: Tests of candidate compounds on blocking Synthesis of compound 8
PUMA-dependent apoptosis To a suspension of rhodanine (7.57 mmol) in dry Construction and validation of recombinant ethanol (10 mL), 4-Biphentlaldehyde (11.3 mmol), N-(2-Adenovirus By taking pHBAd-MCMV-GFP (Hanbio) as hydroxyethyl) piperazine (11.3 mmol), and glacial acetic vector, the construction and purification of Adenoviruses acid (0.75 mmol) were added and the resulting mixture overexpressing PUMA and PUMA-∆BH3 (PUMA was further stirred under reflux for 5-6 h. The reaction was without the BH3 domain) were performed according to completed and then cooled in an ice bath. The precipitated former reports. […]
various multiplicity of infection (MOI, 6 points, from 0 The crystal structure of Comp8 was solved by X-ray to 160) in 96-well, white, flat-bottom plates (Nunc). […] Shake gently and record the luminescence of each well on TECAN Infinite M1000 S.Y.Z., H.C., J.N.L and J.Y.L. conceived the project.
Microplate Spectrophotometer. The data were analyzed J.Y.L. and Z.T. designed the experiment. J.Y.L., Z.T., by Graphpad Prism and suitable MOI of Ad-PUMA for N.Z., X.Y.L. and C.Y.L. performed the experiments and following cell infection can be determined in this process. prepared the manuscript. […]
added to make the final compound concentrations range 2. […] The results were detected by flexible docking. […]

The structures appear in SMILES notation.

Take `O=C1N=C(N2CCN(CCO)CC2)S/C1=C\c1ccc(-c2ccccc2)cc1` [Comp8]: the IC50 (usually the midpoint of a concentration-inhibition curve) in assay [1] turned out to be 44.2 ± 2.22 µM; in assay [2], 38.9 ± 0.91 µM.
